Measured values taken from ChEMBL document CHEMBL1157538, “Discovery of a potent, selective, and orally bioavailable c-Met inhibitor: 1-(2-hydroxy-2-methylpropyl)-N-(5-(7-methoxyquinolin-4-yloxy)pyridin-2-yl)-5-methyl-3-oxo-2-phenyl-2,3-dihydro-1H-pyrazole-4-carboxamide (AMG 458)” (J Med Chem, 2008).

Columns and labels:
[1] = biological target: T1, Hepatocyte growth factor receptor (Homo sapiens, UniProt P08581); assay: Inhibition of c-Met phosphorylation by HTRF assay
[2] = biological target: T1, Hepatocyte growth factor receptor; assay: Inhibition of HGF-mediated c-Met phosphorylation in human PC3 cells; type: cell-based, PC-3
[3] = Intrinsic clearance in human liver microsome; type: ADME; settings: liver microsomes
[4] = Intrinsic clearance in Sprague-Dawley rat liver microsome; type: ADME; settings: liver microsomes
[5] = Intrinsic clearance in BALB/c mouse liver microsome; type: ADME; settings: liver microsomes
[6] = Clearance in rat; type: ADME, organism-based; settings: in vivo
[7] = Half life in rat; type: ADME, organism-based; settings: in vivo
[8] = Oral bioavailability in rat; type: ADME, organism-based; settings: in vivo

Ki [1] [nM] | IC50 [2] [nM] | microsomal CLint [3] [µL/min/mg] | microsomal CLint [4] [µL/min/mg] | microsomal CLint [5] [µL/min/mg] | clearance [6] [mL/min/kg] | half-life [7] [min] | bioavailability [8] [%] | SMILES
2.7 | 50 |  |  |  |  |  |  | COc1ccc2c(Oc3ccc(NC(=O)c4c(C)n(CC(C)(C)O)n(-c5ccccc5)c4=O)cc3F)ccnc2c1
 |  | < 55 | < 60 | < 45 | < 3.33 | 114 | > 50 | COc1ccc2c(Oc3ccc(NC(=O)c4c(C)n(C[C@H](C)O)n(-c5ccccc5)c4=O)cc3F)ccnc2c1
